Reference: patent US20260209220A1, “SUBSTITUTED TETRAHYDROPYRROLO-PYRIDINONE COMPOUNDS AND THEIR USE IN TREATING MEDICAL CONDITIONS” (Karuna Therapeutics, Inc., priority 2022, published 2026)

Legend:
rM4 receptors = biological target: T1, rM4 receptors (Rattus norvegicus, UniProt P08485); assay: Rat M4 PAM PERK assay (CHO cells, TR-FRET, with EC20 acetylcholine); format: cell-based
T1 construct: expressed in transfected cells; host or cells: CHO cells
T1 sequence (P08485 1-478): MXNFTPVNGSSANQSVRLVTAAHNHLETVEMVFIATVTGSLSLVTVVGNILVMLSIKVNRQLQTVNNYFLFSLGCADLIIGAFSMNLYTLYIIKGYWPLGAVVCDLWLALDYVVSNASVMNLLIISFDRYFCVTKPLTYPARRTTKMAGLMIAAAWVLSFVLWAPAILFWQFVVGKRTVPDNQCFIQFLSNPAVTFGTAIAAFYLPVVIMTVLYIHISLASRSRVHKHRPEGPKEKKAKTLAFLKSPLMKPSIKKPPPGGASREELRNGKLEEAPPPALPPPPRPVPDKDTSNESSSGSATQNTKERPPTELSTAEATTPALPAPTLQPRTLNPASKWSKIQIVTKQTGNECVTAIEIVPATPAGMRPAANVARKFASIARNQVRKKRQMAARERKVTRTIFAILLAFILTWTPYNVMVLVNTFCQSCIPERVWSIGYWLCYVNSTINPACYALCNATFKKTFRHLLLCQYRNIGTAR
Method: (§1) Chinese hamster ovary (CHO) cells expressing either hM4 or rM4 receptors were frozen in assay ready vials (5×10^6 cells/vial) after bulking-up in culture. The day before an assay, vial(s) were thawed and cells seeded in 384 well white proxiplates at 1000/well for hM4 cells and at 2000/well for rM4 cells, in 10 μL of growth media (Hams/F12 with glutamax and 10% FCS) and incubated overnight at 37° C./5% CO2.
(§2) On the following morning, the growth media was removed by ‘flicking out’ over a bin, patting the inverted plate onto tissue, and then replacing with 10 μL of wash media (Hams/F12 with glutamax and 8 mM HEPES, NB: serum free). Then, the wash media was removed in the same way and replaced with 8 μL/well of the serum free media. Plates were then re-incubated for a further 4 hours at 37° C./5% CO2.
(§3) Compounds for testing were solubilized to 10 mM in DMSO and compound addition plates, consisting of ten-point concentration response curves (CRC) in duplicate points (10 μM top concentration, ½ log dilution series), were prepared by acoustic dispensing and the compound management group.
(§4) After the 4-hour incubation in serum free media, a 4 μL aliquot of the 3×compound solution containing an EC20 of acetylcholine (10 nM final concentration) was added to the cell plate using a 384 well plate to plate transfer. Then, the plate lid was replaced, and the cells incubated for 5 mins at 37° C./5% CO2. Following this final incubation, all cellular processes were stopped by the addition of 4 μL/well of lysis and blocking buffer and plates were incubated for 30 minutes at RT on an orbital shaker (gentle setting). Then, a final addition of 4 μL/well of antibody detection mix, containing both the Europium-Cryptate (donor) and d2 (acceptor) tagged detection components, was added followed by a further 2-hour incubation at RT, and then the plate was read using a TR-FRET (time resolved fluorescence resonance energy transfer) based protocol.

hM4 receptors = biological target: T2, hM4 receptors (Homo sapiens, UniProt P08173); assay: Human M4 PAM PERK assay (CHO cells, TR-FRET, with EC20 acetylcholine); format: cell-based
T2 construct: expressed in transfected cells; host or cells: CHO cells
T2 sequence (P08173 1-479): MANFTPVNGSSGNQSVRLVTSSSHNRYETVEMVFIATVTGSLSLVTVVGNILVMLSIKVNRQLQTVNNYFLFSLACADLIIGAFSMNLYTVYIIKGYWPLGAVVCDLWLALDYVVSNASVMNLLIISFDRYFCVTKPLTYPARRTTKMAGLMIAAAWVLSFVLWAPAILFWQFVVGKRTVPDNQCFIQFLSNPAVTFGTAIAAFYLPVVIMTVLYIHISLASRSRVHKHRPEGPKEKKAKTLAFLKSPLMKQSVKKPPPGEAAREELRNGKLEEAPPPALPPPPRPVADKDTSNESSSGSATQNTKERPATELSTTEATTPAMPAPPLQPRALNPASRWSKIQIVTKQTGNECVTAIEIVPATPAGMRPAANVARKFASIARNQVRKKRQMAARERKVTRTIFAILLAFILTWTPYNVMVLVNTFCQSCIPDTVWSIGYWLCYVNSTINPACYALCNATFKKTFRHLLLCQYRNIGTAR
Method: as §1, §2, §3, §4

human M4 receptor = biological target: T3, human M4 receptor (Homo sapiens, UniProt P08173); assay: M4 GTPγS PAM assay (CHO-K1 membranes, 35S-GTP binding, with EC20 acetylcholine); format: biochemical; settings: with EC20 acetylcholine (40 nM)
T3 construct: expressed in transfected cells; host or cells: CHO-K1 cells (membranes)
T3 sequence (P08173 1-479): T2 sequence (P08173 1-479)
Method: The M4 GTPγS PAM method was used. Membranes were prepared for GTPgS binding assays from CHO-K1 cells stably expressing human M4 receptor. Briefly, cells were grown in 5-layer cell culture flasks. Cells were washed with 50 mL of PBS and then dissociated with 0.05% trypsin. Dissociated cells were then collected by centrifugation at 650×g for 8 minutes at 4° C. Pellets were washed again in PBS by centrifugation and resuspended in 30 mL of 20 mM HEPES, 10 mM EDTA, pH 7.4. After sitting on ice for 30 min, membranes were collected by centrifugation at 50000×g for 15′ at 4° C., resuspended in 30 mL of 20 mM HEPES, 0.1 mM EDTA, pH 7.4 and collected again by centrifugation. Pellets were then washed twice by centrifugation in 30 mL of 20 mM HEPES, pH 7.4, and stored at −80° C. until the day of the assay. On the day of the assay, pellets were thawed on ice and resuspended in 1 mL of 20 mM HEPES, pH 7.4, 10 mM MgCl2, 100 mM NaCl using dounce homogenization. Membrane protein concentration is determined by BCA protein assay (Promega, Madison, WI) according to Promega guidelines.
On the day of the assay, serial dilutions of test PAM compounds were brought up in assay buffer (20 mM HEPES, 10 mM MgCl2, 100 mM NaCl) at 4X final assay concentration. […] of membrane homogenates (containing […] of membrane protein) were prepared in assay buffer supplemented with GDP at […] final assay concentration (final assay concentration of GDP is 5 μM for M2 and 0.1 μM for M4) and dispensed into 96 well polypropylene, U-bottom Greiner plates. 25 ml of vehicle or test PAM compound at 4× of final assay concentration diluted in the assay buffer were added to membrane and plates are incubated for 10-15 minutes at room temperature with gentle shaking. Then, […] of EC20 acetylcholine in assay buffer at 4× final assay concentration was added to assay plates (EC20 final assay concentrations was 40 nM for human M4).
Plates were then incubated, with shaking, for an additional 10-15 minutes. […] of 0.4 nM 35S-GTP (Perkin Elmer, Waltham, MA) in assay buffer was added to assay mixtures. The binding reaction is left on the shaker for 1 hour at room temperature. Membranes in assay reactions were then transferred to GF/C filter plates (Unifilter, Perkin Elmer) and washed three times using a FilterMate Harvester (Perkin Elmer) with cold assay buffer containing no GDP. Filter plates were then dried at 40° C. overnight followed by the addition of […] of Beta Plate Scintillation liquid. Plates are top and bottom sealed before being read on TopCount scintillation counter (Perkin Elmer, Waltham, MA).

| EC50 (rM4 receptors) | EC50 (hM4 receptors) | EC50 (human M4 receptor) | SMILES |
| --- | --- | --- | --- |
| 50 to 200 nM | < 50 nM | – | Cc1c2c(n(C)c(=O)c1Cl)CN(C(=O)CC1CN(c3cccc(C(F)(F)F)c3)C1)C2 [Compound I-73] |
| > 1000 nM | 50 to 200 nM | – | CCc1c(C)c2c(n(C)c1=O)CN(C(=O)CC1CN(c3ccnc(C(F)(F)F)c3)C1)C2 [Compound I-107, 3-Ethyl-1,4-dimethyl-6-(2-(1-(2-(trifluoromethyl)pyridin-4-yl)azetidin-3-yl)acetyl)-1,5,6,7-tetrahydro-2H-pyrrolo[3,4-b]pyridin-2-one] |
| 50 to 200 nM | 50 to 200 nM | – | Cc1c2c(n(C)c(=O)c1F)CN(C(=O)CC1CN(c3ccc(F)c(C(F)(F)F)c3)C1)C2 [Compound I-89] |
| 200 to 1000 nM | 200 to 1000 nM | – | COc1cc(N2CC(CC(=O)N3Cc4c(C)c(C)c(=O)n(C)c4C3)C2)cc(C(F)(F)F)n1 [Compound I-54] |
| 200 to 1000 nM | 50 to 200 nM | – | Cc1c2c(n(C)c(=O)c1C#N)CN(C(=O)CC1CN(c3ccnc(C(F)(F)F)c3)C1)C2 [Compound I-111, 1,4-Dimethyl-2-oxo-6-(2-(1-(2-(trifluoromethyl)pyridin-4-yl)azetidin-3-yl)acetyl)-2,5,6,7-tetrahydro-1H-pyrrolo[3,4-b]pyridine-3-carbonitrile] |
| 50 to 200 nM | < 50 nM | – | Cc1cc(=O)n(C)c2c1C(C)N(C(=O)CC1CN(c3ccnc(C(F)(F)F)c3)C1)C2 (centres unmarked) [Compound I-114] |
| – | > 1000 nM | > 1000 nM | Cc1cc(=O)n(C)c2c1CN(C(=O)C(C)(C)C1CN(c3ccnc(C(F)(F)F)c3)C1)C2 [Compound I-41, 1,4-Dimethyl-6-(2-methyl-2-(1-(2-(trifluoromethyl)pyridin-4-yl)azetidin-3-yl)propanoyl)-1,5,6,7-tetrahydro-2H-pyrrolo[3,4-b]pyridin-2-one] |
| > 1000 nM | 200 to 1000 nM | – | Cc1cc(=O)n(C2CC2)c2c1CN(C(=O)CC1CN(c3ccnc(C(F)(F)F)c3)C1)C2 [Compound I-103, 1-Cyclopropyl-4-methyl-6-(2-(1-(2-(trifluoromethyl)pyridin-4-yl)azetidin-3-yl)acetyl)-1,5,6,7-tetrahydro-2H-pyrrolo[3,4-b]pyridin-2-one] |
| > 1000 nM | 50 to 200 nM | – | Cc1cc2c(n(C)c1=O)CN(C(=O)CC1CN(c3ccnc(C(F)(F)F)c3)C1)C2 [Compound I-112, 1,3-Dimethyl-6-(2-(1-(2-(trifluoromethyl)pyridin-4-yl)azetidin-3-yl)acetyl)-1,5,6,7-tetrahydro-2H-pyrrolo[3,4-b]pyridin-2-one] |
| > 1000 nM | 200 to 1000 nM | – | CSc1c2c(n(C)c(=O)c1C)CN(C(=O)CC1CN(c3ccnc(C(F)(F)F)c3)C1)C2 [Compound I-104, 1,3-Dimethyl-4-(methylthio)-6-(2-(1-(2-(trifluoromethyl)pyridin-4-yl)azetidin-3-yl)acetyl)-1,5,6,7-tetrahydro-2H-pyrrolo[3,4-b]pyridin-2-one] |
| 200 to 1000 nM | < 50 nM | – | Cc1c2c(n(C)c(=O)c1Br)CN(C(=O)CC1CN(c3ccnc(C(F)(F)F)c3)C1)C2 [Compound I-110, 3-Bromo-1,4-dimethyl-6-(2-(1-(2-(trifluoromethyl)pyridin-4-yl)azetidin-3-yl)acetyl)-1,5,6,7-tetrahydro-2H-pyrrolo[3,4-b]pyridin-2-one] |
| 200 to 1000 nM | 50 to 200 nM | – | Cc1cc(=O)n(C)c2c1CN(C(=O)CC1CN(c3ccc(F)c(F)c3)C1)C2 [Compound I-32] |

Second part, the compound before the results:

| SMILES | EC50 (rM4 receptors) | EC50 (hM4 receptors) | EC50 (human M4 receptor) |
| --- | --- | --- | --- |
| Cc1cc(=O)n(CC(F)(F)F)c2c1CN(C(=O)CC1CN(c3ccc(C(F)(F)F)cc3)C1)C2 [Compound I-105, 4-Methyl-1-(2,2,2-trifluoroethyl)-6-(2-(1-(4-(trifluoromethyl)phenyl)azetidin-3-yl)acetyl)-1,5,6,7-tetrahydro-2H-pyrrolo[3,4-b]pyridin-2-one] | 200 to 1000 nM | > 1000 nM | – |
| Cc1c2c(n(C)c(=O)c1Cl)CN(C(=O)CC1CN(c3cncnc3)C1)C2 [Compound I-69] | 50 to 200 nM | < 50 nM | – |
| Cc1c2c(n(C)c(=O)c1F)CN(C(=O)CC1CN(c3cccc(F)c3F)C1)C2 [Compound I-87] | 50 to 200 nM | < 50 nM | – |
| COc1cncc(N2CC(CC(=O)N3Cc4c(C)c(Cl)c(=O)n(C)c4C3)C2)c1 [Compound I-75] | > 1000 nM | < 50 nM | – |
| Cc1c2c(n(C)c(=O)c1C)CN(C(=O)CC1CN(c3cnc(C(F)(F)F)cn3)C1)C2 [Compound I-50] | 50 to 200 nM | 200 to 1000 nM | – |
| COc1cc(N2CC(CC(=O)N3Cc4c(C)c(Cl)c(=O)n(C)c4C3)C2)ccn1 [Compound I-77] | 200 to 1000 nM | < 50 nM | – |
| Cc1c2c(n(C)c(=O)c1Cl)CN(C(=O)CC1CN(c3ccccc3C(F)(F)F)C1)C2 [Compound I-74] | 200 to 1000 nM | 50 to 200 nM | – |
| Cc1c2c(n(CC(F)(F)F)c(=O)c1Cl)CN(C(=O)CC1CN(c3ccccc3)C1)C2 [Compound I-94] | 200 to 1000 nM | 200 to 1000 nM | – |
| Cc1c2c(n(C)c(=O)c1C)CN(C(=O)CC1CN(c3cccc(F)c3F)C1)C2 [Compound I-48] | 50 to 200 nM | < 50 nM | – |
| Cc1cc(=O)n(C)c2c1CN(C(=O)CC1CN(c3ccncn3)C1)C2 [Compound I-6] | 200 to 1000 nM | 200 to 1000 nM | – |
